Among the data in paper PMC11597885, “Enhancing Antileishmanial Activity of Amidoxime-Based Compounds Bearing a 4,5-Dihydrofuran Scaffold: In Vitro Screening Against Leishmania amazonensis” (Molecules, 2024) are IC50 and CC50 values, retold here.

SMILES strings stand for the structures. Read-outs that look alike come from different tables or passages of the source.

The test system of data set [1] is Leishmania amazonensis promastigotes, strain MHOM/BR/77/LTB0016. Kind of data set: Antipromastigote activity assay (resazurin). The class given is cell-based. The note with it: 72 h, mean ± SD from three independent experiments, read-out: Activity IC50 (µM/72 h), promastigote form of L. amazonensis. As for the experimental part:
Initially, compounds 14 to 25 were subjected to preliminary in vitro screening against Leishmania amazonensis promastigotes, strain MHOM/BR/77/LTB0016. The 50% growth inhibitory concentration (IC50) was measured after 72 h of cultivation with each compound using a resazurin assay conducted in independent triplicate experiments. […] Leishmania amazonensis (MHOM/BR/77/LTB0016) was cultured as promastigotes at 26 °C using Schneider’s insect medium (Sigma-Aldrich, St Louis, MO, USA), supplemented with 10% heat-inactivated fetal calf serum (HIFCS), 100 μg/mL streptomycin, and 100 U/mL penicillin. The parasites were sustained up to the 10th passage, after which fresh cultures were derived from infected host animals. L. amazonensis promastigotes were cultured in Schneider’s insect medium with 10% HIFCS, as described above, with or without various concentrations of test substances. The initial cell density was 1.0 × 10^6 cells/mL, and the culture was kept at 26 °C for 72 h. Resazurin reduction was used to evaluate the cell viability. The concentration required to inhibit 50% of the promastigote activity (IC50) was calculated using logarithmic regression analysis via GraphPrism 5 software.
(In general: The colour change of resazurin is a common sign of viable cells or microbes.)

Data set [2] is described as follows: Cytotoxicity assay (resazurin). It counts as cell-based. The note with it: mouse, murine peritoneal macrophages, 0–200 µM tested, mean ± SD from three independent experiments. As for the experimental part: Murine peritoneal macrophages were collected by flushing the peritoneal cavity with 5 mL of RPMI 1640 medium containing 10% HIFCS, 2 mM L-glutamine, 1 mM pyruvate, 100 μg/mL streptomycin, and 100 U/mL penicillin. The macrophage suspension was adjusted to 1.0 × 10^6 cells/mL and then plated in triplicate in 96-well plates (Falcon Co., Franklin Lakes, NJ, USA). Cultures were incubated at 37 °C in a 5% CO2 environment for 1 h. Nonadherent cells were subsequently removed, and the remaining cells were exposed to varying concentrations of test compounds (0–200 μM) for 72 h. Viability was assessed using a resazurin assay, and the concentration that caused 50% cytotoxicity (CC50) was determined using logarithmic regression analysis with GraphPrism 5 software.

The subject of data set [3] is intracellular amastigote form of Leishmania amazonensis. Description: Antiamastigote activity assay (infected peritoneal macrophages, infection index). The class given is cell-based. The note with it: Macrophage, 72 h, L. amazonensis in murine macrophages, mean ± SD from three independent experiments, read-out: Intracellular Amastigotes IC50 (µM/72 h). The protocol:
Resident peritoneal macrophages were seeded in RPMI medium (Sigma-Aldrich) at 1 × 10^6 cells/mL (0.4 mL/well) on Lab-Tek eight-chamber slides (Nunc) and incubated at 37 °C in 5% CO2 for 1 h. After this period, nonadherent cells were removed, and the adherent macrophages were co-cultured with L. amazonensis promastigotes at a 5:1 parasite-to-cell ratio. After 4 h, the monolayers were washed to eliminate free parasites. Cells were then treated with different concentrations of the compounds and incubated for 72 h at 37 °C in 5% CO2. Following incubation, the slides were stained using the Instant Prov hematological dye (Newprov, Curitiba, Brazil), and antileishmanial activity was assessed microscopically. Amastigote numbers were determined by counting at least 100 macrophages per sample, and the results were expressed as an infection index (II), calculated as: II = (percentage of infected cells) × (number of amastigotes/total macrophages). Dose–response curves for the antiamastigote activity were generated using nonlinear regression in GraphPad Prism 5.0, and IC50 values were calculated.

For data set [4] the test system is unchanged. Set-up: method as in PMID 21555166, PMID 20833057. The note with it: previously reported HIT; read-out: IC50 for the intracellular amastigote form of L. amazonensis; cited from earlier work.

In the case of `CC1(Cc2ccccc2)CC(C(=O)Nc2ccc(Br)cn2)=C(c2ccc(C(N)=NO)cc2)O1` (stereo not shown) [Compound 14, 5-Benzyl-N-(5-bromopyridin-2-yl)-2-(4-(N′-hydroxycarbamimidoyl)phenyl)-5-methyl-4,5-dihydrofuran-3-carboxamide], the IC50 in data set [1] was found to be 15 ± 1.03 µM; in data set [3], 0.5 ± 0.15 µM. This compound also gave a cytotoxic concentration (CC50) at 72 h in data set [2] of 171.5 ± 1.19 µM. As to `CC1(Cc2ccccc2)CC(C(=O)Nc2ccc(Cl)cn2)=C(c2ccc(C(N)=NO)cc2)O1` (stereo not shown) [Compound 15, 5-Benzyl-N-(5-chloropyridin-2-yl)-2-(4-(N′-hydroxycarbamimidoyl)phenyl)-5-methyl-4,5-dihydrofuran-3-carboxamide], the IC50 in data set [1] was 16 ± 1.03 µM; in data set [3], 0.6 ± 0.2 µM. Also, the CC50 at 72 h in data set [2] is over 200 µM.

With `Cc1ccc(NC(=O)C2=C(c3ccc(C(N)=NO)cc3)OC(C)(Cc3ccccc3)C2)nc1` (stereo not shown) [Compound 16, 5-Benzyl-2-(4-(N′-hydroxycarbamimidoyl)phenyl)-5-methyl-N-(5-methylpyridin-2-yl)-4,5-dihydrofuran-3-carboxamide], the IC50 came to 17 ± 1.02 µM in data set [1] and 0.3 ± 0.07 µM in data set [3]. In addition, the 50% cytotoxic concentration (CC50) at 72 h in data set [2] is over 200 µM. Turning to `CC1(Cc2ccccc2)CC(C(=O)Nc2ccccn2)=C(c2ccc(C(N)=NO)cc2)O1` (stereo not shown) [Compound 17, 5-Benzyl-2-(4-(N′-hydroxycarbamimidoyl)phenyl)-5-methyl-N-(pyridin-2-yl)-4,5-dihydrofuran-3-carboxamide], the IC50 in data set [1] worked out at 22.4 ± 1.02 µM. On the same count and under the same terms, under `CC1(Cc2ccccc2)CC(C(=O)Nc2ccncc2)=C(c2ccc(C(N)=NO)cc2)O1` (stereo not shown) [Compound 18, 5-Benzyl-2-(4-(N′-hydroxycarbamimidoyl)phenyl)-5-methyl-N-(pyridin-4-yl)-4,5-dihydrofuran-3-carboxamide] stands 23.5 ± 1.04 µM; under `CC1(Cc2ccccc2)CC(C(=O)Nc2ccccc2)=C(c2ccc(C(N)=NO)cc2)O1` (stereo not shown) [Compound 19, 5-Benzyl-2-(4-(N′-hydroxycarbamimidoyl)phenyl)-5-methyl-N-phenyl-4,5-dihydrofuran-3-carboxamide], 23.8 ± 1.02 µM. Still for that read-out and setting: the figure for `CC1(Cc2ccccc2)CC(C(=O)Nc2ccc(F)cc2)=C(c2ccc(C(N)=NO)cc2)O1` (stereo not shown) [Compound 20, 5-Benzyl-N-(4-fluorophenyl)-2-(4-(N′-hydroxycarbamimidoyl)phenyl)-5-methyl-4,5-dihydrofuran-3-carboxamide] is 23.8 ± 1.02 µM; for `CC1(Cc2ccccc2)CC(C(=O)NCc2ccc(C(F)(F)F)cc2)=C(c2ccc(C(N)=NO)cc2)O1` (stereo not shown) [Compound 21, 5-Benzyl-2-(4-(N′-hydroxycarbamimidoyl)phenyl)-5-methyl-N-(4-(trifluoromethyl)benzyl)-4,5-dihydrofuran-3-carboxamide] it is 26.4 ± 1.02 µM.

As for `CC1(Cc2ccccc2)CC(C(=O)Nc2cccnn2)=C(c2ccc(C(N)=NO)cc2)O1` (stereo not shown) [Compound 22, 5-Benzyl-2-(4-(N′-hydroxycarbamimidoyl)phenyl)-5-methyl-N-(pyridazin-3-yl)-4,5-dihydrofuran-3-carboxamide], the IC50 in data set [1] turned out to be 29.9 ± 1.02 µM. On the same count and under the same terms, the figure for `CC1(Cc2ccccc2)CC(C(=O)Nc2ccc(Cl)nn2)=C(c2ccc(C(N)=NO)cc2)O1` (stereo not shown) [Compound 23, 5-Benzyl-N-(6-chloropyridazin-3-yl)-2-(4-(N′-hydroxycarbamimidoyl)phenyl)-5-methyl-4,5-dihydrofuran-3-carboxamide] is 36.4 ± 1.03 µM. On to `CC1(Cc2ccccc2)CC(C(=O)Nc2cnccn2)=C(c2ccc(C(N)=NO)cc2)O1` (stereo not shown) [Compound 24, 5-Benzyl-2-(4-(N′-hydroxycarbamimidoyl)phenyl)-5-methyl-N-(pyrazin-2-yl)-4,5-dihydrofuran-3-carboxamide], for which the IC50 in data set [1] worked out at 39.4 ± 1.02 µM. `Cc1cc(NC(=O)C2=C(c3ccc(C(N)=NO)cc3)OC(C)(Cc3ccccc3)C2)nn1C` (stereo not shown) [Compound 25, 5-Benzyl-N-(1,5-dimethyl-1H-pyrazol-3-yl)-2-(4-(N′-hydroxycarbamimidoyl)phenyl)-5-methyl-4,5-dihydrofuran-3-carboxamide]: the IC50 in data set [1] was found to be 52.5 ± 1.03 µM.

Consider `CC1(Cc2ccccc2)CC(S(=O)(=O)c2ccc(F)cc2)=C(c2ccc(C(N)=NO)cc2)O1` (stereo not shown) [HIT, 4-(5-benzyl-3-((4-fluorophenyl)sulfonyl)-5-methyl-4,5-dihydrofuran-2-yl)-N′-hydroxybenzimidamide], for which the IC50 in data set [4] was 7.9 ± 1.1 µM.

As usually defined, the CC50 is the concentration giving 50% cytotoxicity. Lower therefore signals greater toxicity to the cells.
